Measured values from US10844062B2, “Pyridine derivative inhibiting RAF kinase and vascular endothelial growth factor receptor, method for preparing same, pharmaceutical composition containing same, and use thereof” (SAMJIN PHARMACEUTICAL CO., LTD., priority 2016, dated 2020).

These compounds were tested on LS513 KRAS G12V (colon) (assay: MTT assay). Conditions: Homo sapiens, LS-513, 72 h, Table 4; 3 days incubation; read-out: MTT assay IC50 KRAS mutant (Colon) LS513 KRAS G12V.
Assay type: cell-based
Protocol: MTT assay is frequently used for the purpose of primary screening for the sensitivity of anticancer agents and to examine cytotoxicity. When cancer cells are treated with varying concentrations of any anticancer agent for a predetermined time to induce death of the cells and are then treated with MTT, and when the formation of formazan is measured, the concentration of the anticancer agent, at which about 50% of the cells survive, can be determined. This concentration value is called IC50. IC50 values differ between drugs, and thus can be characteristic of the drugs. Using this method, the effects of anticancer agents against cell proliferation can be quantitatively compared. Thus, in order to measure the cytotoxicity of samples, MTT assay was performed using CellTiter 96 Non-radioactive Cell Proliferation Assay Kit (Promega).
Cells in a cell suspension were counted with a hematocytometer, and then 200 μL of the cell suspension was added to each well of a 96 well plate at a desired concentration (cell amount determined depending on a cell line). After cell seeding, the cells were incubated in a CO2 incubator at 37° C. overnight. After one day of cell stabilization, the cells were treated with desired concentrations of the compounds. The cells were incubated in a CO2 incubator at 37° C. for 3 days, and then the sample was removed, and 200 μL of MTT solution was added to each well. After 2 hours of incubation, the MTT dilution was carefully shaken, and 200 μL of DMSO was added to each well, followed by shaking with a plate shaker for 60 minutes.

| Structure (SMILES) | IC50 [nM] |
| --- | --- |
| Cc1cn(-c2cc(C(=O)Nc3ccc(F)c(Nc4ncccc4-c4ncnc5[nH]cnc45)c3F)cc(C(F)(F)F)c2)cn1 [Example 2, N-(3-(3-(9H-purin-6-yl)pyridin-2-ylamino)-2,4-difluorophenyl)-3-(4-methyl-1H-imidazol-1-yl)-5-(trifluoromethyl)benzamide] | > 10000 |
| CCN1CCN(Cc2ccc(C(=O)Nc3ccc(F)c(Nc4ncccc4-c4ncnc5[nH]cnc45)c3F)cc2C(F)(F)F)CC1 [Example 3, N-(3-(3-(9H-purin-6-yl)pyridin-2-ylamino)-2,4-difluorophenyl)-4-((4-ethylpiperazin-1-yl)methyl)-3-(trifluoromethyl)benzamide] | 4030 |
| CC(C)C(=O)Nc1ccc(F)c(Nc2ncccc2-c2ncnc3[nH]cnc23)c1F [Example 4, N-(3-(3-(9H-purin-6-yl)pyridin-2-ylamino)-2,4-difluorophenyl)isobutylamide] | > 10000 |
| O=C(Nc1ccc(F)c(Nc2ncccc2-c2ncnc3[nH]cnc23)c1F)c1cccs1 [Example 5, N-(3-(3-(9H-purin-6-yl)pyridin-2-ylamino)-2,4-difluorophenyl)thiophene-2-carboxamide] | > 10000 |
| O=C(Nc1ccc(F)c(Nc2ncccc2-c2ncnc3[nH]cnc23)c1F)c1ccco1 [Example 6, N-(3-(3-(9H-purin-6-yl)pyridine-2-ylamino)-2,4-difluorophenyl)furan-2-carboxamide] | > 10000 |
| O=C(Nc1ccc(F)c(Nc2ncccc2-c2ncnc3[nH]cnc23)c1F)c1ccno1 [Example 7, N-(3-(3-(9H-purin-6-yl)pyridin-2-ylamino)-2,4-difluorophenyl)isoxazole-5-carboxamide] | > 10000 |
| O=C(Nc1ccc(F)c(Nc2ncccc2-c2ncnc3[nH]cnc23)c1F)c1cncs1 [Example 8, N-(3-(3-(9H-purin-6-yl)pyridin-2-ylamino)-2,4-difluorophenyl)thiazole-5-carboxamide] | > 10000 |
| CN1CCN(c2cc(C(=O)Nc3ccc(F)c(Nc4ncccc4-c4ncnc5[nH]cnc45)c3F)cc(C(F)(F)F)c2)CC1 [Example 10, N-(3-(3-(9H-purin-6-yl)pyridin-2-ylamino)-2,4-difluorophenyl)-3-(4-methylpiperazin-1-yl)-5-(trifluoromethyl)benzamide] | 1170 |
| O=C(Nc1ccc(F)c(Nc2ncccc2-c2ncnc3[nH]cnc23)c1F)c1cc(N2CCSCC2)cc(C(F)(F)F)c1 [Example 11, N-(3-(3-(9H-purin-6-yl)pyridin-2-ylamino)-2,4-difluorophenyl)-3-thiomorpholino-5-(trifluoromethyl)benzamide] | 996 |
| O=C(Nc1ccc(F)c(Nc2ncccc2-c2ncnc3[nH]cnc23)c1F)c1cc(N2CCC(O)CC2)cc(C(F)(F)F)c1 [Example 12, N-(3-(3-(9H-purin-6-yl)pyridin-2-ylamino)-2,4-difluorophenyl)-3-(4-hydroxypiperidin-1-yl)-5-(trifluoromethyl)benzamide] | 1020 |
| CC1CCN(c2cc(C(=O)Nc3ccc(F)c(Nc4ncccc4-c4ncnc5[nH]cnc45)c3F)cc(C(F)(F)F)c2)CC1 [Example 13, N-(3-(3-(9H-purin-6-yl)pyridin-2-ylamino)-2,4-difluorophenyl)-3-(4-methylpiperidin-1-yl)-5-(trifluoromethyl)benzamide] | 1150 |
| O=C(Nc1ccc(F)c(Nc2ncccc2-c2ncnc3[nH]cnc23)c1F)c1ccc(N2CCSCC2)c(C(F)(F)F)c1 [Example 14, N-(3-(3-(9H-purin-6-yl)pyridin-2-ylamino)-2,4-difluorophenyl)-4-thiomorpholino-3-(trifluoromethyl)benzamide] | 851 |
| CC1CCN(c2ccc(C(=O)Nc3ccc(F)c(Nc4ncccc4-c4ncnc5[nH]cnc45)c3F)cc2C(F)(F)F)CC1 [Example 15, N-(3-(3-(9H-purin-6-yl)pyridin-2-ylamino)-2,4-difluorophenyl)-4-(4-methylpeperidin-1-yl)-3-(trifluoromethyl)benzamide] | 1670 |
| O=C(Nc1ccc(F)c(Nc2ncccc2-c2ncnc3[nH]cnc23)c1F)c1ccc(Cl)c(C(F)(F)F)c1 [Example 16, N-(3-(3-(9H-purin-6-yl)pyridin-2-ylamino)-2,4-difluorophenyl)-4-chloro-3-(trifluoromethyl)benzamide] | 2780 |
| O=C(Nc1ccc(F)c(Nc2ncccc2-c2ncnc3[nH]cnc23)c1F)c1ccc2c(c1)OCCO2 [Example 17, N-(3-(3-(9H-purin-6-yl)pyridin-2-ylamino)-2,4-difluorophenyl)-2,3-dihydrobenzo[b][1,4]dioxine-6-carboxamide] | 1160 |
| O=C(Nc1ccc(F)c(Nc2ncccc2-c2ncnc3[nH]cnc23)c1F)c1cc(N2CCOCC2)cc(C(F)(F)F)c1 [Example 18, N-(3-(3-(9H-purin-6-yl)pyridin-2-ylamino)-2,4-difluorophenyl)-3-morpholino-5-(trifluoromethyl)benzamide] | 3020 |

| Structure (SMILES) | IC50 [nM] |
| --- | --- |
| O=C(Nc1ccc(F)c(Nc2ncccc2-c2ncnc3[nH]cnc23)c1F)c1ccc(N2CCCC2)c(C(F)(F)F)c1 [Example 19, N-(3-(3-(9H-purin-6-yl)pyridin-2-ylamino)-2,4-difluorophenyl)-4-(pyrrolidin-1-yl)-3-(trifluoromethyl)benzamide] | 939 |
| N#CC1(c2cccc(C(=O)Nc3ccc(F)c(Nc4ncccc4-c4ncnc5[nH]cnc45)c3F)c2)CC1 [Example 20, N-(3-(3-(9H-purin-6-yl)pyridin-2-ylamino)-2,4-difluorophenyl)-3-(1-cyanocyclopropyl)benzamide] | 2600 |
| CC(C)(C(N)=O)c1cccc(C(=O)Nc2ccc(F)c(Nc3ncccc3-c3ncnc4[nH]cnc34)c2F)c1 [Example 22, N-(3-(3-(9H-purin-6-yl)pyridin-2-ylamino)-2,4-difluorophenyl)-3-(1-amino-2-methyl-1-oxopropan-2-yl)benzamide] | > 10000 |
| CC(C)(C#N)c1cccc(C(=O)Nc2cc(Nc3ncccc3-c3ncnc4[nH]cnc34)ccc2Cl)c1 [Example 24, N-(5-(3-(9H-purin-6-yl)pyridin-2-ylamino)-2-chlorophenyl)-3-(2-cyanopropan-2-yl)benzamide] | 476 |
| CC(C)(C#N)c1cccc(C(=O)Nc2c(F)ccc(Nc3ncccc3-c3ncnc4[nH]cnc34)c2F)c1 [Example 25, N-(3-(3-(9H-purin-6-yl)pyridin-2-ylamino)-2,6-difluorophenyl)-3-(2-cyanopropan-2-yl)benzamide] | > 10000 |
| O=C(Nc1ccc(F)c(Nc2ncccc2-c2ncnc3[nH]cnc23)c1F)c1ccccc1C(F)(F)F [Example 26, N-(3-(3-(9H-purin-6-yl)pyridin-2-ylamino)-2,4-difluorophenyl)-2-(trifluoromethyl)benzamide] | > 10000 |
| O=C(Nc1ccc(F)c(Nc2ncccc2-c2ncnc3[nH]cnc23)c1F)c1ccc(C(F)(F)F)cc1 [Example 27, N-(3-(3-(9H-purin-6-yl)pyridin-2-ylamino)-2,4-difluorophenyl)-4-(trifluoromethyl)benzamide] | > 10000 |
| O=C(Nc1ccc(F)c(Nc2ncccc2-c2ncnc3[nH]cnc23)c1F)c1cc(F)cc(C(F)(F)F)c1 [Example 28, N-(3-(3-(9H-purin-6-yl)pyridin-2-ylamino)-2,4-difluorophenyl)-3-fluoro-5-(trifluoromethyl)benzamide] | 958 |
| CC(C)(C#N)c1cccc(C(=O)Nc2cccc(Nc3ncccc3-c3ncnc4[nH]cnc34)c2F)c1 [Example 29, N-(3-(3-(9H-purin-6-yl)pyridin-2-ylamino)-2-fluorophenyl)-3-(2-cyanopropan-2-yl)benzamide] | 978 |
| O=C(Nc1cc(Nc2ncccc2-c2ncnc3[nH]cnc23)c(F)cc1F)c1cccc(C(F)(F)F)c1 [Example 31, N-(5-(3-(9H-Purin-6-Yl)Pyridin-2-Ylamino)-2,4-Difluorophenyl)-3-(Trifluoromethyl)Benzamide] | > 10000 |
| CC(C)(C#N)c1cccc(C(=O)Nc2cc(Nc3ncccc3-c3ncnc4[nH]cnc34)c(F)cc2F)c1 [Example 32, N-(5-(3-(9H-Purin-6-Yl)Pyridin-2-Ylamino)-2,4-Difluorophenyl)-3-(2-Cyanopropan-2-Yl)Benzamide] | 173 |
| O=C(Nc1ccc(F)c(Nc2ncccc2-c2ncnc3[nH]cnc23)c1F)c1cccc([N+](=O)[O-])c1 [Example 34, N-(3-(3-(9H-Purin-6-Yl)Pyridin-2-Ylamino)-2,4-Difluorophenyl)-3-Nitrobenzamide] | > 10000 |
| COc1cccc(C(=O)Nc2ccc(F)c(Nc3ncccc3-c3ncnc4[nH]cnc34)c2F)c1 [Example 35, N-(3-(3-(9H-Purin-6-Yl)Pyridin-2-Ylamino)-2,4-Difluorophenyl)-3-Methoxybenzamide] | > 10000 |
| N#Cc1cccc(C(=O)Nc2ccc(F)c(Nc3ncccc3-c3ncnc4[nH]cnc34)c2F)c1 [Example 37, N-(3-(3-(9H-Purin-6-Yl)Pyridin-2-Ylamino)-2,4-Difluorophenyl)-3-Cyanobenzamide] | > 10000 |
| COc1ccc(C(=O)Nc2ccc(F)c(Nc3ncccc3-c3ncnc4[nH]cnc34)c2F)cc1C(F)(F)F [Example 38, N-(3-(3-(9H-Purin-6-Yl)Pyridin-2-Ylamino)-2,4-Difluorophenyl)-4-Methoxy-3-(Trifluoromethyl)Benzamide] | 1860 |
